Target: T1, human β2 adrenergic receptor (Homo sapiens, UniProt P07550)
T1 construct: expressed in transfected cells; host or cells: CHO (Chinese Hamster Ovary) cells, CHOhβ2
Assay: cAMP Flashplate assay in CHO cells recombinantly expressing the human β2 adrenergic receptor (agonist potency)
Type: cell-based
Conditions: CHOhβ2 cells, 1 hour incubation, 125I-cAMP Flashplate; data expressed as % Isoprenaline activity, four parameter sigmoid fit
Method: According to another alternative, the agonist potency for the β2 receptor of the L-tartrate salt of the invention may also be determined by the measure of the concentration of compound according to the present invention required to produce half maximal effect (EC50) for the β2 receptor.
10 mM/100% DMSO (dimethylsulfoxide) stock of compound is diluted to required top dose in 4% DMSO. This top dose is used to construct a 10-point semi-log dilution curve, all in 4% DMSO. Isoprenaline (Sigma, I-5627) was used as a standard in every experiment and for control wells on each plate. Data was expressed as % Isoprenaline response. […]
25 μl/well each dose of compound was transferred into a cAMP-Flashplate® (NEN, SMP004B), with 1% DMSO as basal controls and 100 nM Isoprenaline as max controls. […] The amount of ^125I-cAMP bound to the Flashplate® was quantified using a Topcount NXT (Packard), normal counting efficiency for 1 minute. Dose-response data was expressed as % Isoprenaline activity and fitted using a four parameter sigmoid fit.

T1 sequence (P07550 whole entry): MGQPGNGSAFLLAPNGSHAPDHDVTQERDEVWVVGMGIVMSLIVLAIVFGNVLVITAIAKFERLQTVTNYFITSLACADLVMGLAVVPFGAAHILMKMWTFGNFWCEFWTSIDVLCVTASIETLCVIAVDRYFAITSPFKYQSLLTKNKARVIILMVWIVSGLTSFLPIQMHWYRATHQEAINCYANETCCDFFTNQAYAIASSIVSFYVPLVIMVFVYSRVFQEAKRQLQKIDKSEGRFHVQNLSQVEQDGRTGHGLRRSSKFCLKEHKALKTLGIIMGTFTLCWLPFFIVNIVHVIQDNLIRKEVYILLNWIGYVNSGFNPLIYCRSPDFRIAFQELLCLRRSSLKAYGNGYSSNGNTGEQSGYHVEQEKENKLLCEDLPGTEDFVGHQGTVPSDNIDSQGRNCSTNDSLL

EC50: 0.076 nM
SMILES: C[C@H](Cc1cccc(CC(=O)NC23CC4CC(CC(C4)C2)C3)c1)NC[C@H](O)c1ccc(O)c(CO)c1 [example 1, N-1-Adamantyl-2-{3-[(2R)-2-({(2R)-2-hydroxy-2-[4-hydroxy-3-(hydroxymethyl)phenyl]ethyl}amino)propyl]phenyl}acetamide L-tartrate]
